Test results: patent US20120202794A1 (priority 2011, published 2012)

Legend:
HCV Replicon 1b = experiment: HCV inhibition assay, HCV replicon 1b (Clone A or ET-lunet cells; RT-PCR or luciferase reporter); type: cell-based; details: Hepatitis C virus, 96 h, HCV replicon 1b; 4 days incubation; read-out: Replicon 1b potency EC90
In short: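 Inhibition read either as luciferase signal (ET replicon) or as HCV 5′-NTR RNA by RT-PCR relative to rRNA, % = (1−2^−ΔΔCt)×100, against DMSO controls, giving EC50 and EC90. Cells: Clone A or ET-lunet, seeded 1500 or 3000/well, exposed 4 days at 37 °C, 5% CO2, 0.5% DMSO.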

[1] = Cell cytotoxicity assay (MTS), CC90 as reported in Table 1, cell line not stated; type: cell-based; details: human; MTS assay; 8 days incubation; cell line not given
In short: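 MTS read-out (490 nm, 2 h dye step) after 8-day exposure at 37° C. Huh7, HepG2, BxPC3 were seeded at 2×10^3 and CEM at 5×10^3 cells/well, with compound serially diluted from 100 μM. CC90 comes from comparison with untreated control wells.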

Row | Compound | EC90 (HCV Replicon 1b) [µM] | CC90 at 8 days [1] [µM]
1 | CC(C)C[C@H]1C(=O)N[C@@H](C2CCCCC2)CN1C(=O)c1noc(-c2ccc(F)c(F)c2)c1F [Compound 396, (3S,6S)-6-cyclohexyl-4-(5-(3,4-difluorophenyl)-4-fluoroisoxazole-3-carbonyl)-3-isobutylpiperazin-2-one] | 1.82 | > 10
2 | CCC[C@H]1C(=O)N[C@@H](c2ccccc2)CN1C(=O)c1cc(-c2ccc(F)cc2)on1 [Compound 397, (3S,6S)-4-(5-(4-fluorophenyl)isoxazole-3-carbonyl)-6-phenyl-3-propylpiperazin-2-one] | 0.89 | > 10
3 | CCC[C@H]1C(=O)N[C@@H](c2ccccc2)CN1C(=O)[C@@H]1C[C@H]1c1ccccc1 [Compound 399, (3S,6S)-6-phenyl-4-((1R,2R)-2-phenylcyclopropanecarbonyl)-3-propylpiperazin-2-one] | 2.07 | > 10
4 | CC(C)[C@H]1C(=O)N[C@@H](c2ccccc2)CN1C(=O)c1cc(-c2ccc(F)cc2)on1 [Compound 400, (3S,6S)-4-(5-(4-fluorophenyl)isoxazole-3-carbonyl)-3-isopropyl-6-phenylpiperazin-2-one] | 0.97 | > 10
5 | CC(C)[C@H]1C(=O)N[C@@H](c2ccccc2)CN1C(=O)[C@@H]1C[C@H]1c1ccccc1 [Compound 402, (3S,6S)-3-isopropyl-6-phenyl-4-((1R,2R)-2-phenylcyclopropanecarbonyl)piperazin-2-one] | 6.63 | > 10
6 | CC(C)[C@H]1C(=O)N[C@@H](c2ccccc2)CN1C(=O)c1noc(-c2ccc(F)cc2)n1 [Compound 403, (3S,6S)-4-(5-(4-fluorophenyl)-1,2,4-oxadiazole-3-carbonyl)-3-isopropyl-6-phenyl-piperazin-2-ono] | 0.27 | > 10
7 | CC(C)[C@H]1C(=O)N[C@@H](c2ccccc2)CN1C(=O)c1nc(-c2ccc(F)cc2)no1 [Compound 404, (3S,6S)-4-(3-(4-fluorophenyl)-1,2,4-oxadiazole-5-carbonyl)-3-isopropyl-6-phenyl-piperazin-2-one] | 1.58 | > 10
8 | CC(C)C[C@H]1CN(C(=O)c2noc(-c3ccc(Cl)cc3)n2)[C@@H](CC(C)C)C(=O)N1 [Compound 405, (3S,6S)-4-(5-(4-chlorophenyl)-1,2,4-oxadiazole-3-carbonyl)-3,6-diisobutylpiperazin-2-one] | 0.32 | > 10
9 | CC(C)C[C@H]1C(=O)N[C@@H](c2ccccc2)CN1C(=O)c1noc(-c2ccc(Cl)cc2)n1 [Compound 406, (3S,6S)-4-(5-(4-chlorophenyl)-1,2,4-oxadiazole-3-carbonyl)-3-isobutyl-6-phenyl-piperazin-2-one] | 0.23 | > 10
10 | C=CC[C@H]1C(=O)N[C@@H](c2ccccc2)CN1C(=O)c1cc(-c2ccc(F)cc2)on1 [Compound 407, (3S,6S)-3-allyl-4-(5-(4-fluorophenyl)isoxazole-3-carbonyl)-6-phenylpiperazin-2-one] | 0.74 | > 10
11 | C=CC[C@H]1C(=O)N[C@@H](CCC)CN1C(=O)c1cc(-c2ccc(F)cc2)on1 [Compound 409, (3S,6S)-3-allyl-4-(5-(4-fluorophenyl)isoxazole-3-carbonyl)-6-propylpiperazin-2-one] | 1.88 | > 10
12 | CC(C)C[C@H]1CCN(C(=O)c2cc(-c3ccc(F)cc3)on2)[C@@H](CC(C)C)C(=O)N1 [Compound 411, (3S,7S)-4-(5-(4-fluorophenyl)isoxazole-3-carbonyl)-3,7-diisobutyl-1,4-diazepan-2-one] | > 10 | > 10
13 | CC(C)CC1CNC(=O)[C@H](CC(C)C)N(C(=O)c2cc(-c3ccc(F)cc3)on2)C1 (stereo partly drawn) [Compound 413, (3S)-4-(5-(4-fluorophenyl)isoxazole-3-carbonyl)-3,6-diisobutyl-1,4-diazepan-2-one] | > 10 | > 10
14 | CC(C)C[C@H]1C(=O)N[C@H](c2ccccc2)CCN1C(=O)c1cc(-c2ccc(F)cc2)on1 [Compound 415, (3S,7S)-4-(5-(4-fluorophenyl)isoxazole-3-carbonyl)-3-isobutyl-7-phenyl-1,4-diazepan-2-one] | > 10 | > 10
15 | CC(C)C[C@H]1C(=O)N[C@H](c2ccccc2)CCN1C(=O)[C@@H]1C[C@H]1c1ccccc1 [Compound 417, (3S,75)-3-isobutyl-7-phenyl-4-((1R,2R)-2-phenylcyclopropanecarbonyl)-1,4-diazepan-2-one] | 7.77 | > 10
16 | CC(C)C[C@H]1C(=O)NC[C@H](c2ccccc2)CN1C(=O)[C@@H]1C[C@H]1c1ccccc1 [Compound 418, (3S,6S)-3-isobutyl-6-phenyl-4-((1R,2R)-2-phenylcyclopropanecarbonyl)-1,4-diazepan-2-one] | > 10 | > 10

Row | Compound | EC90 (HCV Replicon 1b) [µM] | CC90 at 8 days [1] [µM]
17 | CC(C)C[C@H]1C(=O)NC[C@H](c2ccccc2)CN1C(=O)c1cc(-c2ccc(F)cc2)on1 [Compound 420, (3S,6S)-3-isobutyl-6-phenyl-4-(5-(4-fluorophenyl)isoxazole-3-carbonyl)-1,4-diazepan-2-one] | > 10 | > 10
18 | CC(C)C[C@H]1CN(C(=O)[C@H]2C[C@@H]2c2ccc(F)cc2F)[C@@H](CC(C)C)C(=O)N1 [Compound 421, (3S,6S)-4-[(1S,2S)-2-(2,4-Difluoro-phenyl)-cyclopropanecarbonyl]-3,6-diisobutyl-piperazin-2-one] | > 10 | > 10
19 | C/C=C/[C@H]1CN(C(=O)[C@@H]2C[C@H]2c2ccccc2)[C@@H](CC(C)C)C(=O)N1 [Compound 422, (3S,6S)-3-isobutyl-4-((1R,2R)-2-phenylcyclopropanecarbonyl)-6-((E)-prop-1-en-1-yl)piperazin-2-one] | 2.1 | > 10
20 | CC(C)C[C@H]1C(=O)N[C@H](c2cccs2)CN1C(=O)c1cc(-c2ccc(F)cc2)on1 [Compound 428, (3S,6S)-4-(5-(4-fluorophenyl)isoxazole-3-carbonyl)-3-isobutyl-6-(thiophen-2-yl)piperazin-2-one] | > 10 | > 10
21 | CC(C)C[C@H]1C(=O)N[C@@H](c2cccs2)CN1C(=O)c1nc(-c2ccc(F)cc2)no1 [Compound 431, (3S,6R)-4-(3-(4-fluorophenyl)-1,2,4-oxadiazole-5-carbonyl)-3-isobutyl-6-(thiophen-2-yl)piperazin-2-one] | 0.024 | > 10
22 | CC(C)C[C@H]1C(=O)N[C@@H](c2cccs2)CN1C(=O)/C=C/c1ccc(F)cc1F [Compound 434, (3S,6R)-4-((E)-3-(2,4-difluorophenyl)acryloyl)-3-isobutyl-6-(thiophen-2-yl)pipera-zin-2-one] | 0.048 | > 10
23 | CC(C)C[C@H]1C(=O)N[C@@H](c2cccs2)CN1Cc1cc(-c2ccc(F)cc2)on1 [Compound 435, (3S,6R)-4-((5-(4-fluorophenyl)isoxazol-3-yl)methyl)-3-isobutyl-6-(thiophen-2-yl)piperazin-2-one] | 0.26 | > 10
24 | Cc1ccsc1[C@H]1CN(C(=O)[C@@H]2C[C@H]2c2ccc(F)cc2)[C@@H](CC(C)C)C(=O)N1 [Compound 438, (3S,6R)-4-((1R,2R)-2-(4-fluorophenyl)cyclopropanecarbonyl)-3-isobutyl-6-(3-methylthiophen-2-yl)piperazin-2-one] | > 10 | > 10
25 | Cc1ccsc1[C@H]1CN(C(=O)c2noc(-c3ccc(F)cc3)n2)[C@@H](CC(C)C)C(=O)N1 [Compound 441, (3S,6R)-4-(5-(4-fluorophenyl)-1,2,4-oxadiazole-3-carbonyl)-3-isobutyl-6-(3-methylthiophen-2-yl)piperazin-2-one] | > 10 | > 10
26 | CC(C)C[C@H]1C(=O)N[C@@H](C2CCC2)CN1C(=O)c1cc(-c2ccc(F)cc2)on1 [Compound 443, (3S,6S)-6-cyclobutyl-4-(5-(4-fluorophenyl)isoxazole-3-carbonyl)-3-isobutylpiperazin-2-one] | 0.74 | > 10
27 | C/C=C/[C@H]1CN(C(=O)c2cc(-c3ccc(F)cc3)no2)[C@@H](CC(C)C)C(=O)N1 [Compound 447, (3S,6S)-4-(3-(4-fluorophenyl)isoxazole-5-carbonyl)-3-isobutyl-6-((E)-prop-1-en-1-yl)piperazin-2-one] | 0.14 | > 10
28 | C/C=C/[C@H]1CN(C(=O)c2noc(-c3ccc(F)cc3)n2)[C@@H](CC(C)C)C(=O)N1 [Compound 448, (3S,6S)-4-(5-(4-fluorophenyl)-1,2,4-oxadiazole-3-carbonyl)-3-isobutyl-6-((E)-prop-1-en-1-yl)piperazin-2-one] | 0.11 | > 10
29 | C/C=C/[C@H]1CN(C(=O)/C=C/c2ccc(F)cc2F)[C@@H](CC(C)C)C(=O)N1 [Compound 449, (3S,6S)-4-((E)-3-(2,4-difluorophenyl)acryloyl)-3-isobutyl-6-((E)-prop-1-en-1-yl)piperazin-2-one] | 1.19 | > 10
30 | CC(C)C[C@H]1C(=O)N[C@@H](c2ccsc2)CN1C(=O)c1cc(-c2ccc(F)cc2)no1 [Compound 450, (3S,6S)-4-(3-(4-fluorophenyl)isoxazole-5-carbonyl)-3-isobutyl-6-(thiophen-3-yl)piperazin-2-one] | 0.059 | > 10
31 | CC(C)C[C@H]1C(=O)N[C@@H](c2ccsc2)CN1C(=O)/C=C/c1ccc(F)cc1F [Compound 451, (3S,6S)-4-((E)-3-(2,4-difluorophenyl)acryloyl)-3-isobutyl-6-(thiophen-3-yl)piperazin-2-one] | 0.125 | > 10
